In PubChem BioAssay AID2060885 (Molecular Pharmacology Branch, DTP, NCI, 2025):

Test system: NCI-H23 complex spheroids with HUVEC/MSC, viability
Assay: Anticancer human tumor NCI-H23 cell line growth inhibition [RAS];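 also: spheroids exposed to compound for 7 days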;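 as to viability, T/C: 100% = DMSO vehicle control viability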
Settings: for IC50: curve of first compound; for viability, T/C: stronger effect = lower value
In short: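 Agents were tested in combination matrices in half-log decrements from a top concentration at or near clinical Cmax (10 microM if undetermined). Targets were multi-cell spheroids of tumour lines plus HUVEC and MSC stromal cells.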

C=CC(=O)N1CCN(c2nc(OCC3CCCN3C)nc3c(F)c(-c4nc(N)cc(C)c4C(F)(F)F)c(Cl)cc23)C(C)C1 (configuration not stated) + CCn1c(-c2cccnc2C(C)OC)c2c3cc(ccc31)N1CCOC(CC(NC(=O)C(C(C)C)N(C)C(=O)C3(F)CCN(C(=O)C#CC(C)(C)N(C)C)CC3)C(=O)N3CCCC(N3)C(=O)OCC(C)(C)C2)C1
IC50 (second compound 0.000949 µM): < 3.16 nM | IC50 (second compound 0.003 µM): < 3.16 nM | IC50 (second compound 0.00949 µM): < 3.16 nM | IC50 (second compound 0.03 µM): < 3.16 nM | IC50 (second compound 0.0949 µM): < 3.16 nM | IC50 (second compound 0.3 µM): < 3.16 nM | viability, T/C (second compound 0.000949 µM, first compound 0.00316 µM): 34.7% | viability, T/C (second compound 0.000949 µM, first compound 0.01 µM): 35.5% | viability, T/C (second compound 0.000949 µM, first compound 0.0316 µM): 24.3% | viability, T/C (second compound 0.000949 µM, first compound 0.1 µM): 28.4% | viability, T/C (second compound 0.000949 µM, first compound 0.316 µM): 29.2% | viability, T/C (second compound 0.000949 µM, first compound 1 µM): 25.6% | viability, T/C (second compound 0.003 µM, first compound 0.00316 µM): 33.6% | viability, T/C (second compound 0.003 µM, first compound 0.01 µM): 28.5% | viability, T/C (second compound 0.003 µM, first compound 0.0316 µM): 25.6% | viability, T/C (second compound 0.003 µM, first compound 0.1 µM): 29.4% | viability, T/C (second compound 0.003 µM, first compound 0.316 µM): 31.5% | viability, T/C (second compound 0.003 µM, first compound 1 µM): 27.6% | viability, T/C (second compound 0.00949 µM, first compound 0.00316 µM): 26.8% | viability, T/C (second compound 0.00949 µM, first compound 0.01 µM): 26.7% | viability, T/C (second compound 0.00949 µM, first compound 0.0316 µM): 37.2% | viability, T/C (second compound 0.00949 µM, first compound 0.1 µM): 30.9% | viability, T/C (second compound 0.00949 µM, first compound 0.316 µM): 27.7% | viability, T/C (second compound 0.00949 µM, first compound 1 µM): 25.9% | viability, T/C (second compound 0.03 µM, first compound 0.00316 µM): 30.2% | viability, T/C (second compound 0.03 µM, first compound 0.01 µM): 30.5% | viability, T/C (second compound 0.03 µM, first compound 0.0316 µM): 35% | viability, T/C (second compound 0.03 µM, first compound 0.1 µM): 27.2% | viability, T/C (second compound 0.03 µM, first compound 0.316 µM): 27.1% | viability, T/C (second compound 0.03 µM, first compound 1 µM): 29.7% | viability, T/C (second compound 0.0949 µM, first compound 0.00316 µM): 28.5% | viability, T/C (second compound 0.0949 µM, first compound 0.01 µM): 31.4% | viability, T/C (second compound 0.0949 µM, first compound 0.0316 µM): 26.9% | viability, T/C (second compound 0.0949 µM, first compound 0.1 µM): 27.3% | viability, T/C (second compound 0.0949 µM, first compound 0.316 µM): 24.9% | viability, T/C (second compound 0.0949 µM, first compound 1 µM): 32.7% | viability, T/C (second compound 0.3 µM, first compound 0.00316 µM): 25.8% | viability, T/C (second compound 0.3 µM, first compound 0.01 µM): 30% | viability, T/C (second compound 0.3 µM, first compound 0.0316 µM): 24.4% | viability, T/C (second compound 0.3 µM, first compound 0.1 µM): 26.2% | viability, T/C (second compound 0.3 µM, first compound 0.316 µM): 26% | viability, T/C (second compound 0.3 µM, first compound 1 µM): 29.3%
